Experimental data from paper PMC10527014 (Antiviral research, 2023).
Read-outs that look alike come from different tables or passages of the source.

Legend:
[1] = tested on: 215 clinical isolates of EV serotypes; settings: ~90% of isolates; ref Pevear et al., 1999; cited from earlier work
CYP3A4 [2] = settings: 1 μM, rifampicin as positive control, previously tested
[3] = tested on: EV-D68 MP30 PP (mouse-adapted US/MO/14-18949); settings: day 3 p.i., during animal model development; ref Hurst et al., 2019; cited from earlier work
Coxsackievirus B5 (CVB5) = assay: CVB5 CPE rescue; assay type: cell-based; settings: Enterovirus B, B5|CVB5, Vero, read-out: EC50 against CVB5
[4] = target: T1, pregnane X-receptor (PXR) (Homo sapiens, UniProt O75469); assay: PXR agonist activity
T1 sequence (O75469 1-434): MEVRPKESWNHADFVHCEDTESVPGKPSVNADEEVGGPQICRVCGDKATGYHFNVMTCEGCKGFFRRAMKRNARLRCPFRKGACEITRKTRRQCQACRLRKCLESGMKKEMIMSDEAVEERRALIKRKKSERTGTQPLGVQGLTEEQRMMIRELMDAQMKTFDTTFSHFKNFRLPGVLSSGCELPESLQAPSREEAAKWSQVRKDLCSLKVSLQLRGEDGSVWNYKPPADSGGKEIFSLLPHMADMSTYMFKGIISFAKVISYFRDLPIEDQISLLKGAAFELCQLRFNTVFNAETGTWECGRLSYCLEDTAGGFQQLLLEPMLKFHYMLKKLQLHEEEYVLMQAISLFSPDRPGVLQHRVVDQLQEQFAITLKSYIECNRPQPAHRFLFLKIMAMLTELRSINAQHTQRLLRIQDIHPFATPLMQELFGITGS

mouse-adapted CVB5 = assay: Mouse model of CVB5-induced pancreatitis; assay type: in vivo, BALB/c mice; settings: CVB5-infected mice, Fig. S20
EV-71 = settings: read-out: IC50 against EV-71 in vitro; ref Zhang et al., 2012; cited from earlier work
[5] = tested on: Coxsackievirus B3-Woodruff (CVB3); assay type: cell-based; settings: Coxsackievirus, B3|CVB3, HeLa, read-out: Inhibitory concentration EC50 against CVB3-Woodruff
CYP3A4 [6] = target: CYP3A4 (Homo sapiens, UniProt P08684); settings: human liver microsomes, at higher concentrations (Fig. S21)
[7] = tested on: enterovirus / picornavirus infections; settings: cited from earlier work
EV-D68 [8] = settings: read-out: EC50 against EV-D68; ref Liu et al., 2015b; cited from earlier work
[9] = tested on: Coxsackievirus B3-Woodruff (CVB3); assay: microbe, parasite or virus in culture; settings: B3|CVB3, HeLa
EV-D68 [10] = settings: mouse model of EV-D68-associated AFM; ref Hixon et al., 2017; cited from earlier work
[11] = tested on: EV-D68 MP30 PP (mouse-adapted US/MO/14-18949); assay: EV-D68 respiratory infection model in four-week-old AG129 mice; assay type: in vivo; settings: days 1 and 3 p.i., P≤0.05 vs placebo; guanidine 100 mg/kg/day
[12] = tested on: EV-D68 MP30 PP (mouse-adapted); assay: EV-D68 neurological infection; assay type: in vivo, AG129 mice

CYP3A4 (Homo sapiens, UniProt P08684), sequence (P08684 whole entry): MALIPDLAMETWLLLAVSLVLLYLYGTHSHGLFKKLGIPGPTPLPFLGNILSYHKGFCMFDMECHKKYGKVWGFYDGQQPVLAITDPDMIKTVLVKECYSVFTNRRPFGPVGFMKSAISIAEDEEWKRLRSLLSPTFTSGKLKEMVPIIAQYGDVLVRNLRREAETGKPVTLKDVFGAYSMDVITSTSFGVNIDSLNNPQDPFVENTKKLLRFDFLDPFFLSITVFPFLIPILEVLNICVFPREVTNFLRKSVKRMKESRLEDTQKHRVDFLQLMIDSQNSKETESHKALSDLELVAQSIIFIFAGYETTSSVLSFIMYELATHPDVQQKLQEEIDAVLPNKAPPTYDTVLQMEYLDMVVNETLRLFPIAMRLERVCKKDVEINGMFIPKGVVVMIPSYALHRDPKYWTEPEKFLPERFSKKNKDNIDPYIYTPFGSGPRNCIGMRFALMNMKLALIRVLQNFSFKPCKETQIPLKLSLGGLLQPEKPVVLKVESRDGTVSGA

**Q.** With `Cc1cc(CCCOc2c(C)cc(-c3noc(C(F)(F)F)n3)cc2C)on1` [Pleconaril] as the molecule, how does the IC90 [1] read?
**A.** The IC90 was ≤ 180 nM.

**Q.** And the “CYP3A induction, of control” value (CYP3A4 [2])?
**A.** Its value is 13 % of control.

**Q.** And the CYP3A induction (CYP3A4 [2]; single donor in duplicate)?
**A.** Its CYP3A induction is 1.7 x.

**Q.** And the Lung virus titers [3]?
**A.** Its Lung virus titers is “did not demonstrate any antiviral activity”.

**Q.** And the EC50 (Coxsackievirus B5 (CVB5))?
**A.** Its EC50 is 0.66 nM.

**Q.** And the “PXR agonism (in words)” value [4]?
**A.** Its value is “neither 11526092 nor pleconaril is an agonist”.

**Q.** What about the “Histology of pancreatic tissue” value (mouse-adapted CVB5) of the same molecule?
**A.** The value was “no signs of tissue damage”.

**Q.** And the IC50 (EV-71)?
**A.** Its IC50 is 340 to 1420 nM.

**Q.** What about the EC50 [5] of the same molecule?
**A.** Its EC50 is 150 ± 10 nM.

**Q.** And the “Effect on CYP3A4 (in words)” value (CYP3A4 [6])?
**A.** The value was “activation (or autoactivation) of CYP3A4”.

**Q.** And the “Effect on the treatment of the common cold” value ([7]; 400 mg three times a day over five days, ref Hayden et al., 2003)?
**A.** The value was “no statistically significant effect”.

**Q.** What about the “Patients with clinical improvement” value ([7]; chronic meningoencephalitis, ref Aradottir et al., 2001, Rotbart et al.) of the same molecule?
**A.** Its value is 78%.

**Q.** What about the “Neonates in whom treatment proved effective” value ([7]; neonates with severe enteroviral hepatitis, ref Aradottir et al., 2001) of the same molecule?
**A.** Its value is 2 of 3.

**Q.** What about the EC50 (EV-D68 [8]) of the same molecule?
**A.** The EC50 was 430 nM.

**Q.** And the EC50 ([9]; read-out: Inhibitory concentration EC50 against CVB3-Woodruff, HeLa cells, adding drug to virus and then infecting at MOI 1 PFU / cell, ± SEM)?
**A.** The EC50 was 45 nM.

**Q.** What about the EC50 ([9]; read-out: Inhibitory concentration EC50 against CVB3-Woodruff, HeLa cells, adding drug to virus and then infecting at MOI 3 PFU / cell, ± SEM) of the same molecule?
**A.** Its EC50 is 333 ± 210 nM.

**Q.** With `CNCCC(Oc1ccc(C(F)(F)F)cc1)c1ccccc1` (stereo not shown) [fluoxetine] as the molecule, how does the Viral load (EV-D68 [10]) read?
**A.** The Viral load was “did not reduce the viral load”.

**Q.** Which Lung virus titers [11] does the source give for `Cl.N=C(N)N` [guanidine, Guanidine HCl, reference compound] here?
**A.** The Lung virus titers was “showed a reduction”.

**Q.** And the Neurological scores ([12]; post-challenge study)?
**A.** Its Neurological scores is “reduced the neurological score on day 3 post-infection”.

**Q.** What about the “Mice protected from challenge infection” value ([12]; post-challenge study (treatment 4 hours post-infection)) of the same molecule?
**A.** Its value is > 80%.

**Q.** And the “Mice protected from challenge infection” value ([12]; pre-challenge study (treatment 2 hours pre-infection))?
**A.** The value was 100%.

**Q.** What about the “Protection from weight loss” value ([12]; pretreatment, P≤0.0001, Fig. S19) of the same molecule?
**A.** The value was “significant protection”.
